Source: article PMC9166630, “SAR Probing of KX2-391 Provided Analogues With Juxtaposed Activity Profile Against Major Oncogenic Kinases” (Frontiers in Oncology, 2022)
Several values for one entry are separate records, joined by “and”; a condition that tells them apart may be missing. Equal values may be shown once.

Tests used:
[1] = tested on: Yes; assay: PamChip tyrosine kinase microarray, Yes; assay type: biochemical, human; conditions: 4e 0.1 µM, HL60 lysate
Experimental: (§1) The changes in kinase activities induced by treatment with 4e were monitored within the HL60 cell lines using PamGene’s (Hertogenbosch, Netherlands) PamChip® peptide microarray profiler, which quantifies the activities of 144 tyrosine kinases (YK) ([29], [30]) (Figure 7). Results are provided as a log fold change (LFC) heatmap and Mean Kinase Statistic. From the LFC it is apparent that compound 4e, at a concentration of 0.1 µM, induced sizable changes to the activity of several kinases within the cell signaling YK profile (Figure 7A).
(§2) An Upstream Kinase tool was used to generate a putative list of kinases responsible for phosphorylating the phospho-sites on the PamChip (Figure 7B) ([31]). It is an interpretation and is highly dependent on the contents of the underlying phosphorylation databases. A Kinase Score was used for ranking kinases based on their significance and specificity in terms of the set of peptides used for the corresponding kinase. Kinase Statistics indicates the overall change of the peptide set that represents the kinase. Kinase statistics value <0 indicates lower kinase activity in the compound spiked lysate and vice versa ([32], [33]). Table 5 lists the 20 most changed kinases within treated HL60 cell lysates by 0.1 μM 4e, ranked according to their Kinase Score.
(§3) The two multiple-kinase tests (PamChip and Phosphokinase Profiler) provided strong evidence of very minor involvement of Src in the cellular activities of 4e. However, the question must be raised about the effect of the 4e on other SRC family kinase (SFK). To address this point, we must highlight that both R&D phosphokinase profiler and PamChip feature Yes, Fgr, Lyn, Lck and Src while Fyn, Hck, Blk and Frk activities are tested in the PamChip only. The signals of SFKs in the R&D Phosphokinase Profiler were too weak to detect in both untreated (control) and 4e-treated HL60 cells. In PamChip assay, most of SFK’s were not ranked in the top 20 affected kinases (Table 5). In addition, their Specificity Score were very low (Table 6) indicating their marginal importance to the cell killing activities of 4e. Fgr kinase which ranked 7th in the list (Table 5) was the only SFK member that seems to be affected by the compound, albeit with low Specificity Score (1.03).
(§4) The compound 4e was spiked into HL60 cell lysate at different concentrations (0.001, 0.01, 0.1, 1, 10 and 50 μM). In addition, DMSO was also spiked in HL60 lysate at low concentration (2% v/v) as control. Samples were profiled on PamGene’s Tyrosine Kinase (PTK) arrays in technical replicates, covering a total of 196 phosphorylation sites. Frozen HL60 cultured cell pellet was sent to PamGene. […] Protein concentration was measured using standard Bradford assay as per PamGene SOPs. […]

[2] = tested on: GSK-3α/β; assay: Human phosphokinase array, GSK-3α/β; assay type: cell-based
Source text: (§5) The kinome tree representation (Figure 7C), which was generated by raising the Kinase Score cut-off to >1.2, confirmed that, unlike tirbanibulin and our prototype molecule KX1-136, 4e’s effects were more observable on kinases other than the Src family such as the Eph and TEC families. […] Therefore, we screened compound 4e using the Human Phospho-Kinase Array® kit from R&D systems (Minneapolis, MN, USA). In this system, 35 phosphorylated YK and serine-threonine kinase (STK) enzymes in the untreated (control) and treated (test) HL60 cell lysates were captured on nitrocellulose membrane, pre-spotted with phosphokinase-specific capture antibodies, and then visualized by detection antibody cocktails (Figure 8). The difference in the spot intensity between untreated (control) and treated cells is proportional to change in the amount of the phosphorylated protein induced by 4e.
(§6) The phosphorylation profile of 48 kinases was performed using the Proteome Profiler Human Phospho-Kinase Antibody Array Kit by R&D Systems (Minneapolis, MN, USA) according to the protocol. Briefly, the total cellular protein was extracted using the Lysis buffer and was quantified using Bio-Rad DC Protein Assay kit (Hercules, CA, USA). Nitrocellulose membrane set (A&B), pre-spotted with kinase-specific capture antibodies, were first blocked with Array Buffer-1 at RT for 30 min on a rocking platform shaker. Approximately 600 µg of protein concentrate was diluted in the buffer provided and was added onto the membrane set, and the membranes were incubated overnight at 4°C in an 8-well plate. Subsequently, membranes were washed with Wash Buffer and incubated with appropriate Detection Antibody cocktails for 2 h at RT. Streptavadin-HRP (1:2000) was added onto membranes and incubated for 30 min at RT. Membranes were washed, and Chemiluminescent Detection Reagents 1&2 were applied in equal volumes for detection. The signals were detected on C-DiGit®Blot Scanner (LI-COR, Odyssey Imaging Systems, Lincoln, Nebraska, USA) using Image Studio 5.0 software.

[3] = tested on: CREB; assay: Human phosphokinase array, CREB; assay type: cell-based
Source text: as §5, §6

[4] = target: T1, Fes (Homo sapiens, UniProt P07332); assay: PamChip tyrosine kinase microarray, Fes; assay type: biochemical; conditions: 4e 0.1 µM, HL60 lysate
T1 construct: endogenous in cells; host or cells: HL60 lysate
T1 sequence (P07332 whole entry): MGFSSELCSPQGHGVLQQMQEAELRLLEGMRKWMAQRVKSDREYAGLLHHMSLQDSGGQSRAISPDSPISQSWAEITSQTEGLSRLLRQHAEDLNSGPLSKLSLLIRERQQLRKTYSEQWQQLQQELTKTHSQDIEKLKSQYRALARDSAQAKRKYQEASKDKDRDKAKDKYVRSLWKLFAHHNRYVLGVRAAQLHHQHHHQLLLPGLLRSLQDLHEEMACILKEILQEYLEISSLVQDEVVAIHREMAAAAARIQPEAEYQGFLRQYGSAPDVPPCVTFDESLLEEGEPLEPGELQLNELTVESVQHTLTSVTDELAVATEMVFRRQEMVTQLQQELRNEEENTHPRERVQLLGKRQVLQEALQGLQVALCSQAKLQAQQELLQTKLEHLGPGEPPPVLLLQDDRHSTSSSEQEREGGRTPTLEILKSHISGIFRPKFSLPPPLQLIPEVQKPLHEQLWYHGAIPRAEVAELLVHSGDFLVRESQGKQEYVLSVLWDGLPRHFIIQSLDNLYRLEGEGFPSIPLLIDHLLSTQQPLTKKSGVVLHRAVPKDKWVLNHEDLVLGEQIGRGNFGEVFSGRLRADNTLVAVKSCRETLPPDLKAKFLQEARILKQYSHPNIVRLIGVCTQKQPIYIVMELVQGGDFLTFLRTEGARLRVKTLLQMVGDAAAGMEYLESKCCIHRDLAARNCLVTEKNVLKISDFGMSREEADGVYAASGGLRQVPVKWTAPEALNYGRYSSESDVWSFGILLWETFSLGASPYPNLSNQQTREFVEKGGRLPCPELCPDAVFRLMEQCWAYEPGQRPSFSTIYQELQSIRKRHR
Experimental: as §1, §2
(§7) The compound 4e was spiked into HL60 cell lysate at different concentrations (0.001, 0.01, 0.1, 1, 10 and 50 μM). In addition, DMSO was also spiked in HL60 lysate at low concentration (2% v/v) as control. Samples were profiled on PamGene’s Tyrosine Kinase (PTK) arrays in technical replicates, covering a total of 196 phosphorylation sites. Frozen HL60 cultured cell pellet was sent to PamGene. At PamGene, cells were lysed using a lysis buffer and proteases inhibitors cocktail. Protein concentration was measured using standard Bradford assay as per PamGene SOPs. These lysates were further used for generating the PTK activity profiles. For spiking, 4e was received as powder form and dissolved in DMSO at PamGene facility followed by storing at -20°C in small aliquots. PamGene used its in-house bioinformatics toolbox in combination with other methods to generate hypotheses of signaling pathways.

[5] = tested on: Hck; assay: PamChip tyrosine kinase microarray, Hck; assay type: biochemical, human; conditions: 4e 0.1 µM, HL60 lysate
Experimental: as §1, §2, §3, §4

[6] = target: T2, Ret (Homo sapiens, UniProt P07949); assay: PamChip tyrosine kinase microarray, Ret; assay type: biochemical; conditions: 4e 0.1 µM, HL60 lysate
T2 construct: endogenous in cells; host or cells: HL60 lysate
T2 sequence (P07949 29-1114): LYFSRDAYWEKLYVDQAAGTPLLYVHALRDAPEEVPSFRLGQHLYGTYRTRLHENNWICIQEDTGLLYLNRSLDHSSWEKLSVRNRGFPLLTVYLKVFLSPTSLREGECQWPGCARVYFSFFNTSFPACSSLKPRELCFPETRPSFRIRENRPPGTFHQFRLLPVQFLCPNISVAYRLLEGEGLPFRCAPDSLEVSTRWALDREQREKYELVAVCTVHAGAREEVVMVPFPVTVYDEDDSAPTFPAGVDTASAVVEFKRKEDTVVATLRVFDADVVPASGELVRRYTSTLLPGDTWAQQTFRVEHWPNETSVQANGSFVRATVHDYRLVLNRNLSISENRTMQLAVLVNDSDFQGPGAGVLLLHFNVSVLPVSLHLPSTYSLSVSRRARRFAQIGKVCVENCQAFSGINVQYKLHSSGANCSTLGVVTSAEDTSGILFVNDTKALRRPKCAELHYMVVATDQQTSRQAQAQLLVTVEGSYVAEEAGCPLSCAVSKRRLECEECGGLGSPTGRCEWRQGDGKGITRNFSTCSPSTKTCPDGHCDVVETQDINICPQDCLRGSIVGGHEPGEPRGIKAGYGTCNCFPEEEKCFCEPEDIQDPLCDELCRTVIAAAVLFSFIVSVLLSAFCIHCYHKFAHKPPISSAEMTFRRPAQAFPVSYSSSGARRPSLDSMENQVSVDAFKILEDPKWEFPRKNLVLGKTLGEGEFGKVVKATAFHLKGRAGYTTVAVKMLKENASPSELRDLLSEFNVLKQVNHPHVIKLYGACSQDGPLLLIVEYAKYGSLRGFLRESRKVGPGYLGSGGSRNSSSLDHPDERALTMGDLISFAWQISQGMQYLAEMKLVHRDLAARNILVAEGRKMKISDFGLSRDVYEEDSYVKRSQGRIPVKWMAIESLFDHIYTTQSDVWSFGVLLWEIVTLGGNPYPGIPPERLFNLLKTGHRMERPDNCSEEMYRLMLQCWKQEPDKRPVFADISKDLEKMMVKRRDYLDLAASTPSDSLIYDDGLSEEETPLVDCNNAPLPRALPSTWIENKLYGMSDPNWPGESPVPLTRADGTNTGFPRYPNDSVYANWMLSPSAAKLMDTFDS
Experimental: as §1, §2, §7

[7] = target: T3, Ros (Homo sapiens, UniProt P08922); assay: PamChip tyrosine kinase microarray, Ros; assay type: biochemical; conditions: 4e 0.1 µM, HL60 lysate
T3 construct: endogenous in cells; host or cells: HL60 lysate
T3 sequence (P08922 28-2347): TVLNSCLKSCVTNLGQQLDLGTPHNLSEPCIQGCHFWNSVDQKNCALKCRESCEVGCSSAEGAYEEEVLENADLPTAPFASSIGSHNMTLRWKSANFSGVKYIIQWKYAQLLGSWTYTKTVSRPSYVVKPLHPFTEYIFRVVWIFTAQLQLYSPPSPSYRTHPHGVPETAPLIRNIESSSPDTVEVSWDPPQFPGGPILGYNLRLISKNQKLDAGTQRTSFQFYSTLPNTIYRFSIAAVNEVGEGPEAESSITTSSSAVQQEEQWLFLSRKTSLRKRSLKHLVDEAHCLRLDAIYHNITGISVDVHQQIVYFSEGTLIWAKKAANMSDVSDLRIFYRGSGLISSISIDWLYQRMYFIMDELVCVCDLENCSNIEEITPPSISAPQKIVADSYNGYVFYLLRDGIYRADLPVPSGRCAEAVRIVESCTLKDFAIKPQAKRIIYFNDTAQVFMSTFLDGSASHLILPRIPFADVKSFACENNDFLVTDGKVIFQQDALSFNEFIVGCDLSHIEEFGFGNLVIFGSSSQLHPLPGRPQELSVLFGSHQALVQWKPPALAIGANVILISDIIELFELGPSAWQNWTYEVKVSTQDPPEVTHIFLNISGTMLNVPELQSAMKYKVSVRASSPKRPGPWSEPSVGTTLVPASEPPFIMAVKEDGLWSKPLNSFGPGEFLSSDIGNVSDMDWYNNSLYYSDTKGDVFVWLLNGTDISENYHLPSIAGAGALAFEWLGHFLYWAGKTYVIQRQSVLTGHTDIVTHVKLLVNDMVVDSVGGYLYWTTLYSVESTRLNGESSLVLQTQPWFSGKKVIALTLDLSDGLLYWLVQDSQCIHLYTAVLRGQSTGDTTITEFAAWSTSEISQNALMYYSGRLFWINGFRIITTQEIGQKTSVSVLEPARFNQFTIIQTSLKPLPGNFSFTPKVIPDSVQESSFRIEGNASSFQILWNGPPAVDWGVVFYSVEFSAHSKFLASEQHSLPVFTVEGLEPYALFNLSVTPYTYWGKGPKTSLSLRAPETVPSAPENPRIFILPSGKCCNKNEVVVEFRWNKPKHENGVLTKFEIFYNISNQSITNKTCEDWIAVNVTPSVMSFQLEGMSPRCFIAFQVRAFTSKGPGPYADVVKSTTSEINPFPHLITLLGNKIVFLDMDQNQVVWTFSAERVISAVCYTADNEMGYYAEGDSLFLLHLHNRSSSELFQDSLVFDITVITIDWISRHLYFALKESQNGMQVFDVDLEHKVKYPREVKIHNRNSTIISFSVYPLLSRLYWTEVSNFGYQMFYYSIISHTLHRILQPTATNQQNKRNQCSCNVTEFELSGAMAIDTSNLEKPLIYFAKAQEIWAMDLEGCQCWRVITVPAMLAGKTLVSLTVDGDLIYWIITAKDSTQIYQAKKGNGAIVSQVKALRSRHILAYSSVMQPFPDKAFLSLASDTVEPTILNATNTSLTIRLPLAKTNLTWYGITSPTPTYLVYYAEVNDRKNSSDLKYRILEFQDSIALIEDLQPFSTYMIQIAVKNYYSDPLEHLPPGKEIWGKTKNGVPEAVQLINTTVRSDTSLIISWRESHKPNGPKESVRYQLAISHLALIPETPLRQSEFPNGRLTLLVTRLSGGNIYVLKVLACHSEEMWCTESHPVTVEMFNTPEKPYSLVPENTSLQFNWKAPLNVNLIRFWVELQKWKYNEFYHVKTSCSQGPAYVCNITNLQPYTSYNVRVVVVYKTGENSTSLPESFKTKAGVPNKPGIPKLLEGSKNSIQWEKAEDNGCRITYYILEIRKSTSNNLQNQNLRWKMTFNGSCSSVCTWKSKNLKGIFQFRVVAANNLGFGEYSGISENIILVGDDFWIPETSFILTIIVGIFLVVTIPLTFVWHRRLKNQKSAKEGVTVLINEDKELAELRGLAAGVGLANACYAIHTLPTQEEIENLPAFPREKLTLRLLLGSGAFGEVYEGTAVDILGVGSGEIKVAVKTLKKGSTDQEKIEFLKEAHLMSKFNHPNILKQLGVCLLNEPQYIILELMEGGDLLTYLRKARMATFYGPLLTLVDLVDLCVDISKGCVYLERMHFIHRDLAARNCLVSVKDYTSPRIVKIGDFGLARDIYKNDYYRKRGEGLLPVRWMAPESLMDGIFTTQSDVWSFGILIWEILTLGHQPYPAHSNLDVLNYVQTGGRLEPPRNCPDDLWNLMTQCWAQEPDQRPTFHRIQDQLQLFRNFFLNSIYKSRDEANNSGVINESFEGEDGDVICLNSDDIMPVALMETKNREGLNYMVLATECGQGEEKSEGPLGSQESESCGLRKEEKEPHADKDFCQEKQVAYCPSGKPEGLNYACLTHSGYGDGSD
Experimental: as §1, §2, §7

[8] = tested on: Fyn; assay: PamChip tyrosine kinase microarray, Fyn; assay type: biochemical, human; conditions: 4e 0.1 µM, HL60 lysate
Experimental: as §1, §2, §3, §4

## O=C(Cc1ccc(NC(=O)c2cccc(Cl)c2)cc1)NCc1ccccc1 [Compound 4e, N-(4-(2-(benzylamino)-2-oxoethyl)phenyl)-3-chlorobenzamide]
[1]
  Mean Final Score: 1.1516
  Mean Kinase Statistic: -0.4139
  Mean Significance Score: 1.0126
  Mean Specificity Score: 0.1390
[2]; HL60 cell lysate, treated
  phosphokinase signal after 4e exposure, GSK-3α/β: 102.64
[2]; treated vs untreated HL60
  Change in Signal, GSK-3α/β: 22.94
[2]; treated vs untreated HL60, Ser9 phosphorylation
  % Change, GSK-3α/β: 28.78% and 28%
[3]; HL60 cell lysate, treated
  phosphokinase signal after 4e exposure, CREB: 682.43
[3]; treated vs untreated HL60
  Change in Signal, CREB: 42.08
[3]; treated vs untreated HL60, Ser133
  % Change, CREB: 6.57% and ~ 6%
[4]
  Mean Final Score: 2.3241
  Mean Kinase Statistic: -0.6958
  Mean Significance Score: 1.2140
  Mean Specificity Score: 1.1101
[5]
  Mean Final Score: 1.0872
  Mean Kinase Statistic: -0.4497
  Mean Significance Score: 0.8248
  Mean Specificity Score: 0.2624
[6]
  Mean Final Score: 2.3893
  Mean Kinase Statistic: -0.7112
  Mean Significance Score: 1.0953
  Mean Specificity Score: 1.2940
[7]
  Mean Final Score: 2.0991
  Mean Kinase Statistic: -0.9704
  Mean Significance Score: 0.9578
  Mean Specificity Score: 1.1413
[8]
  Mean Final Score: 1.4765
  Mean Kinase Statistic: -0.4963
  Mean Significance Score: 1.1307
  Mean Specificity Score: 0.3458
